Data from PubChem BioAssay AID1963841 (Molecular Pharmacology Branch, DTP, NCI, 2024).

Tested on: 439559-082-T-J2-PDC spheroid viability
Test: Anticancer human tumor 439559-082-T-J2-PDC patient-derived colon adenocarcinoma cell line growth inhibition [POLQ]
Details: spheroids with HUVEC and MSC; for IC50: curve of first compound; for viability, T/C: stronger effect = lower value
Outline: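 Patient-derived tumour cells were co-cultured with HUVEC and mesenchymal stem cells as multicellular spheroids at 37 °C. They were treated with POLQ inhibitors (novobiocin, ART-558, RP6685) alone or combined with other agents. Top concentrations were at or near clinical Cmax (otherwise 10 microM; SN-38 at 1 microM), decreasing in half-log steps.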

[1] = second compound 0.0316 µM, first compound 0.0316 µM
[2] = second compound 0.0316 µM, first compound 0.1 µM
[3] = second compound 0.0316 µM, first compound 0.316 µM
[4] = second compound 0.0316 µM, first compound 1 µM
[5] = second compound 0.0316 µM, first compound 3.16 µM
[6] = second compound 0.0316 µM, first compound 10 µM
[7] = second compound 0.1 µM, first compound 0.0316 µM
[8] = second compound 0.1 µM, first compound 0.1 µM
[9] = second compound 0.1 µM, first compound 0.316 µM
[10] = second compound 0.1 µM, first compound 1 µM
[11] = second compound 0.1 µM, first compound 3.16 µM
[12] = second compound 0.1 µM, first compound 10 µM
[13] = second compound 0.316 µM, first compound 0.0316 µM
[14] = second compound 0.316 µM, first compound 0.1 µM
[15] = second compound 0.316 µM, first compound 0.316 µM
[16] = second compound 0.316 µM, first compound 1 µM
[17] = second compound 0.316 µM, first compound 3.16 µM
[18] = second compound 0.316 µM, first compound 10 µM
[19] = second compound 1 µM, first compound 0.0316 µM
[20] = second compound 1 µM, first compound 0.1 µM
[21] = second compound 1 µM, first compound 0.316 µM
[22] = second compound 1 µM, first compound 1 µM
[23] = second compound 1 µM, first compound 3.16 µM
[24] = second compound 1 µM, first compound 10 µM
[25] = second compound 3.16 µM, first compound 0.0316 µM
[26] = second compound 3.16 µM, first compound 0.1 µM
[27] = second compound 3.16 µM, first compound 0.316 µM
[28] = second compound 3.16 µM, first compound 1 µM
[29] = second compound 3.16 µM, first compound 3.16 µM
[30] = second compound 3.16 µM, first compound 10 µM
[31] = second compound 10 µM, first compound 0.0316 µM
[32] = second compound 10 µM, first compound 0.1 µM
[33] = second compound 10 µM, first compound 0.316 µM
[34] = second compound 10 µM, first compound 1 µM
[35] = second compound 10 µM, first compound 3.16 µM
[36] = second compound 10 µM, first compound 10 µM
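Also: spheroids exposed to compounds for seven days before readout.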
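For viability, T/C in this document: 100% = DMSO vehicle control viability.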

Molecule `COc1cccc2c1C(=O)c1c(O)c3c(c(O)c1C2=O)CC(O)(C(=O)CO)CC3OC1CC(N)C(O)C(C)O1` (stereo unspecified) + Nc1ccc(C#CCN(C(=O)Cc2ncc(C(F)(F)F)cc2C(F)(F)F)c2ccc(F)cc2)nn1 has an IC50 (second compound 0.0316 µM) of over 10 µM, an IC50 (second compound 0.1 µM) of over 10 µM and an IC50 (second compound 0.316 µM) of over 10 µM. The IC50 (second compound 1 µM) was over 10 µM, the IC50 (second compound 3.16 µM) was over 10 µM and the IC50 (second compound 10 µM) was 7.09 µM. For the same molecule, the viability, T/C [1] was 90.2%, the viability, T/C [2] was 83.1% and the viability, T/C [3] was 79.2%. For the same molecule, the viability, T/C [4] was 67.8%, the viability, T/C [5] was 60.7% and the viability, T/C [6] was 60.5%. For the same molecule, the viability, T/C [7] was 99.9%, the viability, T/C [8] was 98.4% and the viability, T/C [9] was 79.8%. It also gave a viability, T/C [10] of 66.5%, a viability, T/C [11] of 58.9% and a viability, T/C [12] of 65.1%. For the same molecule, the viability, T/C [13] was 94.7%, the viability, T/C [14] was 82.5% and the viability, T/C [15] was 78.7%. The viability, T/C [16] was 59.3%, the viability, T/C [17] was 58.1% and the viability, T/C [18] was 66.7%. For the same molecule, the viability, T/C [19] was 103%, the viability, T/C [20] was 85.5% and the viability, T/C [21] was 74.6%. The viability, T/C [22] was 64%, the viability, T/C [23] was 57.2% and the viability, T/C [24] was 55.8%. For the same molecule, the viability, T/C [25] was 87.5%, the viability, T/C [26] was 83.2% and the viability, T/C [27] was 61.2%. It also gave a viability, T/C [28] of 62.4%, a viability, T/C [29] of 67.2% and a viability, T/C [30] of 57.7%. For the same molecule, the viability, T/C [31] was 78.8%, the viability, T/C [32] was 74.2% and the viability, T/C [33] was 70.8%. For the same molecule, the viability, T/C [34] was 59.7%, the viability, T/C [35] was 62.6% and the viability, T/C [36] was 45.1%.
Work on `Nc1ccn(C2OC(CO)C(O)C2(F)F)c(=O)n1` (stereo unspecified) + Nc1ccc(C#CCN(C(=O)Cc2ncc(C(F)(F)F)cc2C(F)(F)F)c2ccc(F)cc2)nn1 yielded an IC50 (second compound 0.0316 µM) of 0.393 µM, an IC50 (second compound 0.1 µM) of 0.583 µM and an IC50 (second compound 0.316 µM) of 0.464 µM. For the same molecule, the IC50 (second compound 1 µM) was 0.519 µM, the IC50 (second compound 3.16 µM) was 0.615 µM and the IC50 (second compound 10 µM) was 1.92 µM. For the same molecule, the viability, T/C [1] was 81.7%, the viability, T/C [2] was 88.2% and the viability, T/C [3] was 54.1%. It also gave a viability, T/C [4] of 35.6%, a viability, T/C [5] of 32.7% and a viability, T/C [6] of 28.2%. The viability, T/C [7] was 89.5%, the viability, T/C [8] was 90.7% and the viability, T/C [9] was 63%. For the same molecule, the viability, T/C [10] was 38.9%, the viability, T/C [11] was 33.9% and the viability, T/C [12] was 28.8%. It also gave a viability, T/C [13] of 91.1%, a viability, T/C [14] of 90.2% and a viability, T/C [15] of 57.4%. The viability, T/C [16] was 35.5%, the viability, T/C [17] was 33.2% and the viability, T/C [18] was 26.1%. For the same molecule, the viability, T/C [19] was 86.4%, the viability, T/C [20] was 85.6% and the viability, T/C [21] was 59.1%. The viability, T/C [22] was 37.9%, the viability, T/C [23] was 32.7% and the viability, T/C [24] was 28.8%. The viability, T/C [25] was 86.3%, the viability, T/C [26] was 79.3% and the viability, T/C [27] was 62.9%. For the same molecule, the viability, T/C [28] was 39.1%, the viability, T/C [29] was 36.1% and the viability, T/C [30] was 27.1%. It also gave a viability, T/C [31] of 90.1%, a viability, T/C [32] of 80% and a viability, T/C [33] of 81.9%. The viability, T/C [34] was 63.4%, the viability, T/C [35] was 39.3% and the viability, T/C [36] was 35.9%.
`O=c1[nH]cc(F)c(=O)[nH]1` + Nc1ccc(C#CCN(C(=O)Cc2ncc(C(F)(F)F)cc2C(F)(F)F)c2ccc(F)cc2)nn1 showed an IC50 (second compound 0.0316 µM) of over 10 µM, an IC50 (second compound 0.1 µM) of over 10 µM and an IC50 (second compound 0.316 µM) of over 10 µM. For the same molecule, the IC50 (second compound 1 µM) was over 10 µM, the IC50 (second compound 3.16 µM) was over 10 µM and the IC50 (second compound 10 µM) was over 10 µM. For the same molecule, the viability, T/C [1] was 105%, the viability, T/C [2] was 112% and the viability, T/C [3] was 101%. For the same molecule, the viability, T/C [4] was 98%, the viability, T/C [5] was 90.2% and the viability, T/C [6] was 87.5%. The viability, T/C [7] was 115%, the viability, T/C [8] was 97.4% and the viability, T/C [9] was 91.4%. For the same molecule, the viability, T/C [10] was 92%, the viability, T/C [11] was 86.5% and the viability, T/C [12] was 82.5%. The viability, T/C [13] was 116%, the viability, T/C [14] was 104% and the viability, T/C [15] was 105%. It also gave a viability, T/C [16] of 95.9%, a viability, T/C [17] of 83.1% and a viability, T/C [18] of 85.3%. The viability, T/C [19] was 104%, the viability, T/C [20] was 94.8% and the viability, T/C [21] was 101%. It also gave a viability, T/C [22] of 81.9%, a viability, T/C [23] of 84.5% and a viability, T/C [24] of 81.4%. The viability, T/C [25] was 103%, the viability, T/C [26] was 99.9% and the viability, T/C [27] was 84.2%. The viability, T/C [28] was 85.5%, the viability, T/C [29] was 86.6% and the viability, T/C [30] was 80.5%. The viability, T/C [31] was 109%, the viability, T/C [32] was 91.3% and the viability, T/C [33] was 102%. The viability, T/C [34] was 83.4%, the viability, T/C [35] was 87.9% and the viability, T/C [36] was 78.7%.
